Test results reported in patent publication US11793816B2, “Methods for enhancing cytotoxic cancer therapy through inhibition of ATG4B” (Northwestern University, priority 2019, dated 2023).

Legend:
[1] = Toxicity evaluation of NSC185058 in mouse organs (behavior, hematoxylin and eosin staining); type: in vivo, mice; conditions: for pathologic analysis of vital organs (hematoxylin and eosin): 150 mg/kg Monday, brain, heart, liver, lung, kidney, spleen, one week after last dosing
Experimental: FIG. 1. NSC185058 (NSC) effectively distributes to the plasma, the brain, and the liver with minimal toxicity in mice. (A) to (C) Mice were dosed with peanut oil vehicle or ATG4B antagonists NSC185058 at doses of 10 or 50 mg/kg body weight. Plasma, the brain, and the liver tissues were collected at the indicated time points. (A) Total concentrations of the NSC compound in plasma were measured by LC-MS/MS. The PK parameter of NSC in plasma was determined. (B) NSC levels in plasma were determined form 5 min to 24 hr post dosing. The chemical structure of NSC was shown. (C) NSC levels were determined in the plasma, the brain, and the liver tissues at 0.5 and 8 hr post dosing. (D) Hematoxylin and eosin stained section s of indicated organs that were treated with NSC (150 mg/kg body weight) or vehicle on Monday, Wednesday, and Friday for three weeks. Scale bars, 50 μm. n=3 mice/group/time point.
Mice were randomized into two groups before the start of experiment. Animals received peanut oil vehicle (control) or ATG4B antagonists NSC185058 (150 mg/kg body weight) on Monday, Wednesday, and Friday for tow to three weeks. Then, mouse tissues and organs including the liver, the kidney, the lung, the spleen, the heart, and the brain were collected after one week post last dose. All specimens were immediately formalin-fixed for 24-36 hrs and then embedded in paraffin embedded. Five micrometer-thick serial sections were obtained from each samples for standard hematoxylin and eosin staining.
The NSC was administered at the dose of 10 or 50 mg/kg body weight in group of three mice. At the indicated time points spanning a 24 hrs period ([…], 0.5, 1, 2, 4, 8, and 24 hour), the plasma, the brain, and the liver tissues were collected. Plasmid and extracts from the brain and the liver were analyzed by LC-MS/MS using method developed at the Illinois Institute of Technology Research Institute (IITRI). […] Plasma exposure appears to increase beyond the hinge in dose for the dosing range tested. The elimination half-life was 2 and 4 for the 10 and 50 mg/kg dose, respectively. […] To examine whether NSC is tolerated in mouse, we investigated the effect induced by NSC in mouse behavior or by pathologic analysis of vital organs including the brain, the heart, the liver, the lung, the kidney, and the spleen. Mice underwent treatments on Monday, Wednesday, and Friday for three week with either peanut oil (vehicle) or NSC (150 mg/kg body weight) in peanut oil. […] Animal tissues were collected one week after the last dosing and subject for hematoxylin and eosin staining.

GSC83 and GBM43 cells [2] = assay: Cell viability / proliferation after NSC, IR, TMZ alone or combined; type: cell-based; conditions: NSC combined with IR or/and TMZ vs single treatments, 72 hours
GSC83 and GBM43 cells [3] = assay: Annexin V/propidium iodide flow cytometry after NSC, IR, TMZ alone or combined; type: cell-based; conditions: NSC combined with IR or/and TMZ vs single treatments, 48 hours
[4] = test system: GSC JK83 orthotopic xenografts; assay: GSC JK83 orthotopic brain tumor xenograft model (survival, BLI, tissue staining); type: in vivo, mice
Text: FIG. 7. NSC enhance anticancer efficacy of AZD2014 in a patient-derived GSC xenograft model. […] Treatments were started at one week post-implantation. Bioluminescent (BLI) images were taken after the last treatment, and representative images are shown. Scale bar, photons/sec/cm2/steradian. (B) Kaplan-Meier of mice bearing GSC JK83 orthotopic xenografts with indicated treatments. (C) The brains of mice bearing orthotopic xenografts with indicated treatments were collected for immunohistochemical evaluation using indicating antibody. *P<0.05, **p<0.01, […]. Data are representative from three independent experiments with similar results.
Frozen brain tissue sections with GBM xenografts were dried and then fixed in were fixed in 4% paraformaldehyde (PFA) in PBS for 5 minutes. Tissue sections were blocked with AquaBlock (East Coast Bio, North Berwick, Me.) for an hour and then were probed with appropriate primary antibodies 4° C. overnight. Tissue sections were incubated with Alexa 488 or 594 labelled secondary antibodies (1:200) and DAPI-containing mounting solution Vectashield (Vector Laboratories), and representative images were photographed using a Nikon inverted microscope Eclipse Ti-U equipped with a digital camera.
To determine whether the enhancement of AZD2014 therapeutic efficiency by combination with NSC measured in vitro extends to an orthotopic model, GSC JK83 glioma spheres were employed to initiate intracerebral xenografts in mice.

Question: Which results are given for S=C(Nc1ccccn1)c1ccccn1 [NSC185058, N-pyridin-2-yl-pyridine-2-carbothioamide]?
Answer: pathologic analysis of vital organs (hematoxylin and eosin) ([1]; Wednesday, Friday for three weeks): no relevant tissue toxicity; pathologic analysis of vital organs (hematoxylin and eosin) ([1]; Wednesday, Friday for three weeks, listed as NSC): no morphological changes or abnormal findings; mouse behavior ([1]; 150 mg/kg in peanut oil, Monday, Wednesday, Friday for three weeks): did not display behavioral changes; toxic effects on the animals ([1]; mice): did not display any toxic effects; tumor cell proliferation (GSC83 and GBM43 cells [2]): more reduction in tumor cell proliferation cells than single treatments; apoptotic cells (Annexin V/PI) (GSC83 and GBM43 cells [3]): more apoptotic cells than single treatments; autophagic flux (LC3B puncta staining) in brain tumor xenografts ([4]; NSC (50 mg/kg) alone): slight impact on autophagic flux; AZD2014-induced autophagy response in the brain ([4]; NSC (50 mg/kg) in the combination protocol): strongly attenuated AZD2014-induced autophagy response; mouse survival ([4]; NSC (100 mg/kg), AZD2014 (50 mg/kg), alone or combined, vs control): modest but significant effects on mouse survival; effect of NSC on inhibition efficiency of AZD2014 on xenograft growth ([4]; combination treatment): enhanced the inhibition efficiency of AZD2014
